Measurements taken from US20240376148A1, “MEDICAMENT FOR INHIBITING DIETARY OBESITY AND POLYPEPTIDE USED THEREFOR” (INSTITUTE OF ZOOLOGY, CHINESE ACADEMY OF SCIENCES, priority 2022, published 2024).

Tests used:
[1] = SPF mice feeding experiment (high-fat diet); format: in vivo, C57/B16J mice
Procedure: C57/B16J mice were used in the SPF mice experiment. At the beginning of the experiment, C57/B16J mice were 4 weeks old, and each weighed 15±1 g. They were raised in a room with suitable temperature and humidity control, and the light/dark cycle was 12 hours, free diet and drinking water, and fed with standard laboratory feed (also known as growth and reproduction feed, item number SPFSLFZ003, product of SPF (Beijing) Experimental Animal Technology Co., Ltd.). After one week of adaptation, they were randomly assigned to a cage, 4-6 mice per cage.
A total of 12 treatments were set up, each with 2 cages of C57/B16J mice, and each treatment was subjected to different feeding treatments, specifically as follows:
NC group (i.e. normal diet group): fed with standard laboratory feed (also known as growth and reproduction feed, SPFSLFZ003), free diet and drinking water, each intragastrically administrated with 0.2 ml solvent daily for 8 weeks.
HFD group (i.e. high-fat diet group): fed with high-fat diet, the high-fat diet used was rodent feed (containing 60% fat, D12492, formula reference Le Roy, T., et al. Dysosmobacter welbionis is a newly isolated human commensal bacterium preventing diet-induced obesity and metabolic disorders in mice. Gut (2021).), free diet and drinking water, each intragastrically administrated with 0.2 ml solvent daily for 8 weeks.
D1 group (i.e. high-fat diet+D1 intragastric administration group): fed with high-fat diet, free diet and drinking water. Intragastrically administrated with synthetic D1, 0.75 mg-3 mg/Kg body weight, 0.2 ml, once/day for 8 weeks.
D2 group (i.e. high-fat diet+D2 intragastric administration group): fed with high-fat diet, free diet and drinking water. Intragastrically administrated with synthetic D2, 0.75 mg-3 mg/Kg body weight, 0.2 ml, once/day for 8 weeks.
D3 group (i.e. high-fat diet+D3 intragastric administration group): fed with high-fat diet, free diet and drinking water. Intragastrically administrated with synthetic D3, 0.75 mg-3 mg/Kg body weight, 0.2 ml, once/day for 8 weeks.
D4 group (i.e. high-fat diet+D4 intragastric administration group): fed with high-fat diet, free diet and drinking water. Intragastrically administrated with synthetic D4, 0.75 mg-3 mg/Kg body weight, 0.2 ml, once/day for 8 weeks.
D5 group (i.e. high-fat diet+D5 intragastric administration group): fed with high-fat diet, free diet and drinking water. Intragastrically administrated with synthetic D5, 0.75 mg-3 mg/Kg body weight, 0.2 ml, once/day for 8 weeks.
D6 group (i.e. high-fat diet+D6 intragastric administration group): fed with high-fat diet, free diet and drinking water. Intragastrically administrated with synthetic D6, 0.75 mg-3 mg/Kg body weight, 0.2 ml, once/day for 8 weeks.
D7 group (i.e. high-fat diet+D7 intragastric administration group): fed with high-fat diet, free diet and drinking water. Intragastrically administrated with synthetic D7, 0.75 mg-3 mg/Kg body weight, 0.2 ml, once/day for 8 weeks.
D8 group (i.e. high-fat diet+D8 intragastric administration group): fed with high-fat diet, free diet and drinking water. Intragastrically administrated with synthetic D8, 0.75 mg-3 mg/Kg body weight, 0.2 ml, once/day for 8 weeks.
D9 group (i.e. high-fat diet+D9 intragastric administration group): fed with high-fat diet, free diet and drinking water. Intragastrically administrated with synthetic D9, 0.75 mg-3 mg/Kg body weight, 0.2 ml, once/day for 8 weeks.
D10 group (i.e. high-fat diet+D10 intragastric administration group): fed with high-fat diet, free diet and drinking water. Intragastrically administrated with synthetic D10, 0.75 mg-3 mg/Kg body weight, 0.2 ml, once/day for 8 weeks.
The feed intake was tracked every week. After the experiment, the mice were weighed and photographs were taken to compare the body size of the mice. After that, the mice were killed by cervical dislocation. […]

[2] = Short-term feed intake experiment of SPF rats; format: in vivo; conditions: after 8 weeks of treatment, p<0.05
Excerpt: A total of 2 treatments were set up, with 5 rats in each treatment, and each treatment was subjected to different feeding treatments, specifically as follows:
HFD group (i.e. high-fat diet group): 8 rats were fed with high-fat diet, the high-fat diet used was rodent feed (containing 60 kcal % fat, D12492), free diet and drinking water for 8 weeks.
D3 group (i.e. high-fat diet+D3 medicine intragastric administration group): 10 rats were fed with high-fat diet, free diet and drinking water. Intragastrically administrated with HD (choose D3), 0.5 mg-2 mg/Kg body weight, 0.5 ml, once/day for 8 weeks.
According to the above treatment, it was carried out for 8 weeks, and then within 1 week, the rats were starved for one day and then given feed, and the feed intake of the animals in the following day was recorded. That is, food weights were recorded every other day (4 separate measurements) and the average daily intake was determined for each 2-day period and calculated for each individual during the one-week measurement period. The obtained were the results of the short-term intake statistics (unit: g/only/day).

[3] = test system: UGN; experiment: Mice ileum immunofluorescence; format: in vivo
Procedure: After the ileum was taken out, it was embedded with OCT and sliced by freezing microtome. Immunofluorescence brief steps: after the sections were washed with PBS for 3 times, 4% paraformaldehyde was added, fixed at room temperature for 10 min, and then washed with PBS for 3 times; 0.5% Triton X-100 was added, permeation at room temperature for 5 min, then washed with PBS 3 times; cell blocking solution was added and blocked at room temperature for 30 min; primary anti-UGN specific antibody (1:200) was added, 4° C. overnight and washed 3 times with PBST; the secondary antibody (1:500) was added, reacted at room temperature for 2 h, washed twice with PBST and washed once with PBS. The cells were stained with […] for additional 10 minutes at 37° C. Cleaned and sealed. Microscopic observation was recorded.

[4] = test system: UGN; experiment: ELISA detection of serum UGN in macaques; format: in vivo; conditions: macaque, not significant (p=0.06)

Sequence: RTRYCRTGR [D3]
- body size compared with the HFD group ([1]; 8 weeks): smaller than that of the HFD group
- subcutaneous and visceral fat weight (inguinal subcutaneous, epididymis, perirenal) vs HFD group ([1]; 8 weeks): significantly lower than that of the HFD group
- weekly feed intake vs control HFD group ([1]; after 3-4 weeks): significant difference in feed intake
- body weight decrease compared with the HFD group ([1]; intragastric 0.75 mg-3 mg/Kg once/day, after 8 weeks): 12.06%
- daily feed intake (short-term) vs HFD group [2]: significantly lower
- fluorescence intensity of UGN in ileal cells [3]: significantly increased
- UGN levels in the serum [4]: Increased
